Drawing on ChEMBL document CHEMBL3507680, “University of Dundee, Gates Library screen for HepG2 cell viability”, this text covers cytotoxicity for 98 compounds.

Structures are written as SMILES.

The nature of the data set: Human HepG2 cell viability assay in 384 well format. It counts as toxicity, cell-based. More on the design: dose 125 nL, time 70.5 hour; concentration not given beside the values. Conditions: HepG2 cells, read-out: Inhibition.
As to `CCN(C)C(=O)c1ccnn1-c1ccc2ccccn12`, the cytotoxicity at 70.5 h worked out at 1.76%.
On to `Cc1nn(-c2ccccc2)c2c1c(C(F)F)cc(=O)n2CC(=O)O`, for which the cytotoxicity at 70.5 h is -9.31%.
As for `Cn1c(C(=O)N2CCC(CC(N)=O)CC2)c(Cl)c2ccccc21`, the figure is 28.2%; as for `Cc1cc(C2CCCN(C(=O)CCc3cscn3)C2)n[nH]1` (stereo not drawn), -19.6%.
As for `CCN(CC1CN(Cc2nc(C3CC3)no2)CCO1)c1cccnn1` (stereo not drawn), the figure is -16.6%; as for `CN(Cc1ccc(F)cc1)[C@@H]1CN(S(=O)(=O)N(C)C)C[C@H]1O`, -0.678%; as for `CN1CCC/C1=N\S(=O)(=O)c1ccc(NC(=O)c2ccc(F)cc2)cc1`, -4.6%.
The result for `COc1ccccc1CNC(=O)C1=NN(c2ccc(C)cc2)C(=O)CN1` reads -4.66%.
Turning to `CN(C)c1ccc(NC(=O)N2CCCCC2c2ncc[nH]2)cn1` (stereo not drawn), the cytotoxicity at 70.5 h is 14.8%.
As to `CO[C@H]1CCN(Cc2cccc(C)n2)[C@@H]2CN(Cc3cccnc3)C[C@H]12`, the cytotoxicity at 70.5 h stood at 1.87%.
In the case of `COc1cc(CNC(=O)CNc2cc(Cl)ccc2OC)ccn1`, the cytotoxicity at 70.5 h was determined as 3.6%.
Turning to `COc1cc(Cl)c(CN2CCC(C(N)=O)C2)cc1Cl` (stereo not drawn), the cytotoxicity at 70.5 h was 4.93%.
In the case of `Cc1ccc(CNC(=O)CN2CCOC(Cn3cccn3)C2)s1` (stereo not drawn), the cytotoxicity at 70.5 h is -4.52%.
The result for `c1cnc2c(c1)nc1n2[C@@H](CNC2CCOCC2)COC1` reads -4.98%.
`Cc1cnn(CC(=O)NCC2CCN(c3cc(Cl)ccc3C)C2)c1` (stereo not drawn): the cytotoxicity at 70.5 h is 6.3%.
As for `CC(C)(CNc1ccccc1S(=O)(=O)C(F)F)N1CCOCC1`, the cytotoxicity at 70.5 h was -0.0351%.
Consider `Cc1ccc(CN2C[C@@H]3COC[C@@H](NS(C)(=O)=O)[C@@H]3C2)o1`, for which the cytotoxicity at 70.5 h is -18.3%.
The result for `CC(C)Oc1cccc(C(=O)C2CCCN(C(=O)c3ccnn3C)C2)c1` (stereo not drawn) reads 19.8%.
As for `COCC1CN(Cc2ccsc2)Cc2nn(C)cc21` (stereo not drawn), the figure is 16.3%; as for `CCN1CC2(CC1=O)CN(Cc1ccc(C)o1)CCN(C(=O)C(C)C)C2` (stereo not drawn), -16.6%.
The result for `Cc1ccc(-c2ncc(CNc3cnccc3CO)s2)o1` reads -2.69%; that for `Cc1cccc(OCCN2CCC(c3ccnn3CCO)CC2)c1`, -7.3%.
In the case of `Cc1nc(COC[C@@H]2CC[C@H]3[C@H](CCN3S(C)(=O)=O)O2)cs1`, the cytotoxicity at 70.5 h was -11.7%.
For `Cc1cc(CN(C)C(=O)NC2CCN(S(C)(=O)=O)CC2)no1`, the cytotoxicity at 70.5 h is -9.54%.
As for `CCc1cnc(CN2CCC(N(C)Cc3noc(C4CC4)n3)C2)o1` (stereo not drawn), the figure is 23.8%.
The result for `O=C(NCC1COCCO1)c1csc(Cc2ccccc2)n1` (stereo not drawn) reads -4.7%; that for `CCN(C(c1ccc(OC)cc1)c1cccnc1)S(C)(=O)=O` (stereo not drawn), -9.72%; that for `OCCN1CCN(CC2(O)CCCCC2)CC1`, 0.0783%.
As for `Cc1nccn1CCCNc1ncccc1C#N`, the figure is -13.8%; as for `COCCN(CC(N)=O)CC1CCCN(C2Cc3ccccc3C2)C1` (stereo not drawn), 7.41%; as for `c1ccc2c(N3CCSCC3)cnnc2c1`, -3.97%.
For `CCOC(=O)[C@H]1[C@@H](O)C(=O)N(C)C12CCN(S(=O)(=O)CC)CC2`, the cytotoxicity at 70.5 h was -10.3%.
As for `CC(C)c1nc(CC(=O)Nc2nc(CN3CCCCCC3)cs2)cs1`, the figure is 16.6%; as for `Cc1nc2ncc3c(=O)n(C)ccc3n2n1`, -8.63%; as for `COCCn1ccnc1C1CCN(C(=O)C(O)c2ccc(F)cc2)CC1` (stereo not drawn), -5.34%.
The result for `COCCCN(C)c1nc(-c2ccncc2)nc2c1CCN(C(C)=O)C2` reads -7.86%; that for `CC(C)N1CCOCC2(CCCN(C(=O)c3cncn3C)C2)C1` (stereo not drawn), -8.05%.
As for `COc1ccc(OCCN(C)C(=O)NC(C)c2nncn2C)cc1` (stereo not drawn), the figure is -1.05%; as for `CSc1ccc(CNC(=O)NCC(O)c2cccc(F)c2)cc1` (stereo not drawn), -7.86%.
On to `CCOC1COC2(CCN(c3ccccn3)CC2)C1` (stereo not drawn), for which the cytotoxicity at 70.5 h was -0.266%.
As for `c1ccc(-c2nc(CN3CCCC3Cn3cncn3)co2)cc1` (stereo not drawn), the figure is -7.46%; as for `CC(=O)NC(c1cc(F)ccc1F)C1CC1` (stereo not drawn), -3.82%; as for `O=C(NCCCNC(=O)c1cccc(O)c1)Nc1ccc(Cl)cc1`, -0.328%.
Regarding `CCOc1ccnc(N2CCN(C(=O)c3cc[nH]n3)CC2)n1`, the cytotoxicity at 70.5 h is -4.46%.
The result for `CC(C)(C)c1nc(CN(Cc2cccs2)C2CCS(=O)(=O)C2)no1` (stereo not drawn) reads -4.17%; that for `C[C@@H]1CN(C(=O)c2cccs2)C[C@]12CCN(CCN(C)C)C2=O`, 21.2%.
The result for `CC(C)NC(=O)NC[C@H]1OC[C@@H](NCc2ccccc2O)[C@@H]1O` reads -2.12%.
As for `COc1ncccc1CN1C[C@@H]2COC[C@]2(COCC2CC2)C1`, the figure is -11.6%; as for `c1csc(CN2CCc3c(CNc4nncs4)cncc3C2)c1`, -9.12%.
For the compound `O=C([C@H]1C[C@H]2OCC[C@H]2N(CC2CCOCC2)C1)N1CCCCO1`, the cytotoxicity at 70.5 h was -7.91%.
The result for `O=C1NC2(CCN(Cc3cccnc3)CC2)CC1c1cccnc1` (stereo not drawn) reads -8.55%; that for `CCc1ncc2c(n1)CN(C(=O)c1c(C)[nH]c3c1C(=O)CCC3)C2`, 1.67%.
As for `CCC(Nc1cccc(OC)c1)C(=O)N(CCO)Cc1nccs1` (stereo not drawn), the figure is -3.06%; as for `CN(CCCNc1cc(N2CCCC2CO)ncn1)S(C)(=O)=O` (stereo not drawn), 11.1%.
The result for `CC(C(=O)N1CCCN(c2ccccc2C#N)CC1)n1cccn1` (stereo not drawn) reads -7.8%.
As for `Cc1ccccc1C(=O)N1C[C@@H]2OCCN(c3ncccn3)[C@@H]2C1`, the cytotoxicity at 70.5 h was determined as 17.4%.
The result for `O=S1(=O)N=C(CSCc2ccccc2)Nc2ccccc21` reads -3.64%; that for `CC(=O)N1Cc2ccccc2OC2(CCN(C(=O)C3CCOC3)CC2)C1` (stereo not drawn), -1.13%.
On to `COc1cccc(/C=C/CCN2CCCN(C(C)=O)CC2)c1`, for which the cytotoxicity at 70.5 h is -6.2%.
As for `CC(=O)NC1CCCN(Cc2csc(-c3ncccn3)n2)C1` (stereo not drawn), the figure is 18.7%; as for `O=C(NCC1CCCCC1)N1C[C@@H]2C[C@H]1CN2`, -7.03%; as for `CS(=O)(=O)N1CCCC12CCCN(c1nccs1)C2` (stereo not drawn), -3.55%.
As to `O=C1CC(c2ccc(O)cc2)c2sc(C(=O)O)c(-c3ccccc3)c2N1` (stereo not drawn), the cytotoxicity at 70.5 h was -16.3%.
The result for `CC1(C)CN(C(=O)c2cnc(CN3CCCC3)s2)CC[C@]1(C)O` reads -0.621%; that for `O=C1NCC2CN(Cc3ccccc3OCc3ccccn3)CCN12` (stereo not drawn), -13.1%; that for `CCSCCC(=O)NC1CCN(C(C)c2ccccc2)CC1` (stereo not drawn), -10.7%.
As to `Cc1nonc1C1CCCN1CCC(=O)N1CCc2ccccc2C1` (stereo not drawn), the cytotoxicity at 70.5 h stood at 24.4%.
With `CC(C)C1CCC(N2CCN(CCCS(C)(=O)=O)CC2)CC1` (stereo not drawn), the cytotoxicity at 70.5 h was -3.77%.
The result for `COc1ccc(C)cc1NC(=O)C1CSc2ncc(C)c(=O)n2C1` (stereo not drawn) reads 8.57%; that for `CCc1ncc(C(=O)N(CC)CCOC)cn1`, -1.19%; that for `O=C(C1CCCC1)N1CC2(CCNC2)OCc2ccccc21` (stereo not drawn), -9.78%.
As for `COCCCn1ccc(NC(=O)NCCn2ccnc2)n1`, the figure is -8.92%; as for `CC(C)CNC(=O)[C@H]1C[C@@H]2CN(C(=O)NCC3CCCCC3)C[C@H]1O2`, -2.13%.
Consider `Cc1ccc(-c2ccc(C(=O)NCC(N)=O)c(F)c2)cc1`, for which the cytotoxicity at 70.5 h is 1.46%.
Turning to `Cc1cccc(CN2CCO[C@H]3[C@H](Oc4ccccn4)CC[C@@H]32)n1`, the cytotoxicity at 70.5 h was -1.62%.
Take `Cc1ccc(CN(CCCn2ccnc2)Cc2ccccc2O)s1`: the cytotoxicity at 70.5 h is 3.23%.
The result for `CN(C)C(=O)CN1CCC2(CCCN(Cc3cccn3C)C2)C1=O` (stereo not drawn) reads 25.7%; that for `O=C(COC1CCCCC1)Nc1ccn(CCc2ccncc2)n1`, -7.83%.
As for `Cc1cc(CN2CCN(C(=O)C(C(C)C)n3cncn3)CC2)no1` (stereo not drawn), the figure is -8.12%; as for `CC(C)n1cnnc1CN(C)Cc1cnc(-c2ccccn2)nc1`, -5.94%.
As for `CCCNc1ccc(C(=O)NCCc2cccc(Cl)c2)cn1`, the figure is -4.77%; as for `CC1CCN(C(=O)[C@@H]2C[C@@H]3CCN(CC4CCOCC4)C[C@@H]3O2)CC1`, -7.26%; as for `O=c1c2sccc2nc2n1CCN(Cc1cc(F)ccc1F)CC2`, -7.47%.
For `Cc1ccc(C)c(CS(=O)(=O)Cc2ccn(C)c(=O)c2)c1`, the cytotoxicity at 70.5 h was -7.9%.
As to `CCCn1ncc(C(=O)NCc2n[nH]c3c2CCCCC3)c1C`, the cytotoxicity at 70.5 h was -13.2%.
As for `COCc1noc(C2(c3ccc(OC)cc3)CCOCC2)n1`, the figure is -9.29%.
Take `CN(C)c1cc(C(=O)NC2(c3cccc(F)c3)CCOCC2)ccn1`: the cytotoxicity at 70.5 h is -1.02%.
For the compound `c1ccc2oc(CN3CCCC(Cn4cncn4)C3)nc2c1` (stereo not drawn), the cytotoxicity at 70.5 h is -1.69%.
For the compound `O=C1O[C@@H]2CN(Cc3cccc(F)c3)C[C@@H]2N1CCCN1CCOCC1`, the cytotoxicity at 70.5 h is 9.24%.
As for `CN1CCC/C1=N\S(=O)(=O)c1ccc(NC(=O)Cc2cccs2)cc1`, the figure is -2.68%.
As for `Cc1cc2n(n1)CC(CNCc1ccc(-n3ccnc3C)nc1)CN2` (stereo not drawn), the figure is -20.7%; as for `COC(=O)C(c1cc(F)ccc1F)N(C)C(=O)c1csnn1` (stereo not drawn), 7.84%.
The result for `CCn1ncc2c1CCCC2NCc1ccc2c(c1)CCO2` (stereo not drawn) reads -0.486%; that for `O=C1CCCN1c1cccc(CNCc2nc(C3CC3)no2)c1`, 8.67%.
Take `CCc1nccn1C1CCCN(C(=O)c2ccc3nncn3c2)C1` (stereo not drawn): the cytotoxicity at 70.5 h was -6.04%.
As for `O=C(C1CCN(Cc2nc(-c3ccco3)no2)CC1)N1CCCC1`, the figure is -4.18%.
The result for `Cc1cccc(C)c1OCC(=O)NC(C)c1nnc2n1CCC2` (stereo not drawn) reads -7.81%; that for `O=C1COC2(CCN(C(=O)C3CC=CC3)CC2)CN1Cc1cccnc1`, 12.1%.
